Measurements taken from US20040268437A1, “Method for biosynthesizing the serotonin derivatives in plants” (CHONNAM NATIONAL UNIVERSITY, priority 2003, published 2004).

Assays:
[1] = tested on: Hot pepper (Variety: Pungcheon); assay: Soil treatment of hot pepper with inducers; serotonin derivative content in sarcocarps by HPLC; format: in vivo; conditions: for Rank of inducers by serotonin derivatives produced: in words; for Content of serotonin derivatives: Coumaroyl Serotonin / Content of serotonin derivatives: Feruloyl serotonin / Content of serotonin derivatives: Total content: inducer 100 μM to soil, 300,000 L/ha, 20 days
Description: Hot pepper (Variety: Pungcheon) was treated with inducers for serotonin derivative biosynthesis, followed by an examination of biosynthesis of serotonin derivatives.
Particularly, inducers for serotonin derivative biosynthesis were prepared by dissolving tyramine, tryptamine, cinnamic acid, coumaric acid, caffeic acid and ferulic acid in water respectively to make each concentration 100 μM. And then the soil where rice plants (about 40 days after heading) had been growing was treated once with each inducer for serotonin derivative biosynthesis at the rate of 300,000 L/ha, followed by further cultivation for 20 days.
The ripe sarcocarps of hot peppers were obtained to investigate the content of serotonin derivatives by the same method as used in the above Example <1-1>. Control group hot pepper was cultivated under the same condition as the experimental group hot pepper except the treatment with inducers for serotonin derivative biosynthesis.

[2] = tested on: transgenic rice plants (T14) over-expressing THT; assay: Soil treatment of transgenic rice T14 with inducers; serotonin derivative content in seeds; format: in vivo; conditions: seeds of transgenic rice T14; inducer 100 μM to soil, 300,000 L/ha, 20 days
Description: Among T2 generations of transgenic rice plants, T14 was transplanted in the soil, to which inducers for serotonin derivative biosynthesis were treated. After cultivation, the contents of serotonin derivatives in seeds of the transgenic rice plants were investigated.
As inducers for serotonin derivative biosynthesis, tyramine, tryptamine, cinnamic acid, coumaric acid, caffeic acid and ferulic acid were used. Precisely, the inducers for serotonin derivative biosynthesis were dissolved in water, making each concentration 100 μM. Then, the solutions were added at the rate of 300,000 L/ha, to the soil where rice plants (about 40 days after heading) were growing. The plants were cultivated for 20 more days.
The seeds of the plants cultivated above were collected, and the content of serotonin derivatives in them was investigated with the same method as used in the Example <1-1>, which was compared with that in seeds of wild type control rice plants.

[3] = tested on: Rice plants (Variety: Nakdong); assay: Soil treatment of rice with inducers; serotonin derivative content in seeds by HPLC; format: in vivo; conditions: for Rank of inducers by serotonin derivatives produced: in words; for Content of serotonin derivatives: Coumaroyl Serotonin / Content of serotonin derivatives: Feruloyl serotonin / Content of serotonin derivatives: Total content: inducer 100 μM to soil, 300,000 L/ha, 20 days
Description: Rice plants (Variety: Nakdong) having been cultivated in the rice field were treated with inducers for serotonin derivative biosynthesis and then biosynthesis of the serotonin derivatives was investigated.
Inducers for serotonin derivative biosynthesis were prepared by dissolving tyramine, tryptamine, cinnamic acid, coumaric acid, caffeic acid and ferulic acid (Sigma-Aldrich, Korea) in water respectively to make each concentration 100 μM. And then the soil where rice plants (about 40 days after heading) had been growing was treated once with each inducer for serotonin derivative biosynthesis at the rate of 300,000 L/ha, followed by further cultivation for 20 days.
As a control group, rice plant which had been cultivated under the same conditions except the treatment with inducers for serotonin derivative biosynthesis was used.
After harvesting rice, seeds of the rice were peeled to obtain brown rice. N-(hydroxycinnamoyl)-amines were extracted from 1 g of the brown rice by known method (Ishihara et al., Biosci. Biotechnol. Biochem. 64, 1025-1031, 2000), and then, HPLC was performed.
Coumaroylserotonin and feruloylserotonin included in the extract of seeds of rice, treated with inducers for serotonin derivative biosynthesis, were quantified by HPLC using a standard substance synthesized by a well-known method (Villegas & Brodelius, Physiol. Plant. 78, 414-420, 1990).

potato THT = conditions: potato THT; cited from earlier work
[4] = tested on: recombinant hot pepper THT; conditions: hydroxycinnamic acid derivative substrates; cited from earlier work

Row | SMILES | Rank of inducers by serotonin derivatives produced [1] | Content of serotonin derivatives: Coumaroyl Serotonin [1] | Content of serotonin derivatives: Feruloyl serotonin [1] | Content of serotonin derivatives: Total content [1] | Content of serotonin derivative: Coumaroyl serotonin [2] | Content of serotonin derivative: Feruloyl serotonin [2] | Content of serotonin derivative: Total content [2] | Rank of inducers by serotonin derivatives produced [3] | Content of serotonin derivatives: Coumaroyl Serotonin [3] | Content of serotonin derivatives: Feruloyl serotonin [3] | Content of serotonin derivatives: Total content [3] | Use as amine substrate (potato THT) | Maximum reaction velocity (Vmax) relative to coumaroyl-CoA [4]
1 | O=C(O)C=Cc1ccccc1 [Cinnamic acid, cinnamic acid] | produced most | 214 ng/1 g sarcocarps | 276 ng/1 g sarcocarps | 490 ng/1 g sarcocarps | 403 ng/g seeds | 406 ng/g seeds | 809 ng/g seeds | produced most | 48 ng/1 g seed | 76 ng/1 g seed | 124 ng/1 g seed | – | –
2 | O=C(O)/C=C/c1ccc(O)cc1 [Coumaric acid, coumaric acid] | – | 120 ng/1 g sarcocarps | 170 ng/1 g sarcocarps | 290 ng/1 g sarcocarps | 325 ng/g seeds | 599 ng/g seeds | 924 ng/g seeds | – | 15 ng/1 g seed | 21 ng/1 g seed | 36 ng/1 g seed | – | –
3 | NCCCCN [putricine] | – | – | – | – | – | – | – | – | – | – | – | not used as a substrate | –
4 | NCCCCNCCCN [spermidine] | – | – | – | – | – | – | – | – | – | – | – | not used as a substrate | –
5 | O=C(O)/C=C/c1ccc(O)c(O)c1 [Caffeic acid, caffeic acid] | – | 138 ng/1 g sarcocarps | 162 ng/1 g sarcocarps | 300 ng/1 g sarcocarps | 368 ng/g seeds | 430 ng/g seeds | 798 ng/g seeds | – | 20 ng/1 g seed | 23 ng/1 g seed | 43 ng/1 g seed | – | –
6 | N=C(N)NCCCCN [agmatine] | – | – | – | – | – | – | – | – | – | – | – | not used as a substrate | –
7 | CC(C)(COP(=O)(O)OP(=O)(O)OC[C@H]1O[C@@H](n2cnc3c(N)ncnc32)[C@H](O)[C@@H]1OP(=O)(O)O)[C@@H](O)C(=O)NCCC(=O)NCCSC(=O)C=Cc1ccccc1 [cinnamoyl-CoA] | – | – | – | – | – | – | – | – | – | – | – | – | 15 times
8 | NCCc1c[nH]c2ccccc12 [Tryptamine, tryptamine] | – | 61 ng/1 g sarcocarps | 79 ng/1 g sarcocarps | 140 ng/1 g sarcocarps | 376 ng/g seeds | 382 ng/g seeds | 758 ng/g seeds | – | 20 ng/1 g seed | 28 ng/1 g seed | 48 ng/1 g seed | not used as a substrate | –
9 | NCCCCCN [cadaverin] | – | – | – | – | – | – | – | – | – | – | – | not used as a substrate | –
10 | NCCCNCCCCNCCCN [spermine] | – | – | – | – | – | – | – | – | – | – | – | not used as a substrate | –
11 | COc1cc(/C=C/C(=O)O)ccc1O [Ferulic acid, ferulic acid] | second most | 145 ng/1 g sarcocarps | 230 ng/1 g sarcocarps | 375 ng/1 g sarcocarps | 313 ng/g seeds | 537 ng/g seeds | 850 ng/g seeds | third most | 33 ng/1 g seed | 37 ng/1 g seed | 70 ng/1 g seed | – | –
